US8378104B2 (OSI Pharmaceuticals, LLC, priority 2010, dated 2013)
pIC50: −log10 of the molar value. Where a name gives a salt, the structure may show the parent alone.

target: T1, TAK1-TAB1 fusion protein (Homo sapiens, UniProt O43318); test: TAK1 biochemical assay (AlphaScreen, GST-MAP2K7 substrate); settings: TAK1-TAB1 fusion protein, GST-MAP2K7 substrate; read-out: mean TAK1 IC50 (Col. A)
T1 construct: purchased Carna
T1 sequence (O43318 with tags, fused parts or gaps limits assumed): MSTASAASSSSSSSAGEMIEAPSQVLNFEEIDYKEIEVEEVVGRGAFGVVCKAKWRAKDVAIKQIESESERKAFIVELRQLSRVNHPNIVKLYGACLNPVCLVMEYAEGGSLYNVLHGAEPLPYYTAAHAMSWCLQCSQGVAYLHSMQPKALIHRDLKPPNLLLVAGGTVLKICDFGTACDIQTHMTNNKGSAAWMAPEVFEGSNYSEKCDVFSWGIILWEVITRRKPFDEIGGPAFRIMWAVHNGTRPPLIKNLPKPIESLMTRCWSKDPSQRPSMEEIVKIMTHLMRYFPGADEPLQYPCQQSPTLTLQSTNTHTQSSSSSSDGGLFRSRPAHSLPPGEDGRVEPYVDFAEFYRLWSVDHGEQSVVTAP

Row | pIC50 | Structure (SMILES)
1 | < 5.00 | Nc1ncc(-c2cnn(C3CCNCC3)c2)c2cc(-c3cccc(OC(F)(F)F)c3)oc12 [Example 22, 4-[1-(piperidin-4-yl)-1H-pyrazol-4-yl]-2-[3-(trifluoromethoxy)phenyl]furo[2,3-c]pyridine-7-amine]
2 | 5.00 to 6.00 | CC(=O)N1CCC(n2cc(-c3cnc(N)c4oc(-c5cccc(-c6ccccc6)c5)cc34)cn2)CC1 [Example 160, 1-(4-{4-[7-amino-2-(biphenyl-3-yl)furo[2,3-c]pyridin-4-yl]-1H-pyrazol-1-yl}piperidin-1-yl)ethanone]
3 | 5.00 to 6.00 | CC(C)Oc1cccc(/C=C/C(=O)N2CCC(n3cc(-c4cnc(N)c5oc(-c6cccc7cnsc67)cc45)cn3)CC2)c1 [Example 337, (E)-1-{4-[4-(7-amino-2-benzo[d]isothiazol-7-yl-furo[2,3-c]pyridin-4-yl)-pyrazol-1-yl]-piperidin-1-yl}-3-(3-isopropoxy-phenyl)-propenone]
4 | 6.00 to 7.00 | CC(=O)N1CCC(n2cc(-c3cnc(N)c4oc(C5CCCCC5)cc34)cn2)CC1 [Example 152, 1-{4-[4-(7-amino-2-cyclohexylfuro[2,3-c]pyridin-4-yl)-1H-pyrazol-1-yl]piperidin-1-yl}ethanone]
5 | 5.00 to 6.00 | Nc1ncc(-c2cnn(C3CCNCC3)c2)c2cc(-c3ccc4cc[nH]c4c3)oc12 [Example 29, 2-(1H-indol-6-yl)-4-[1-(piperidin-4-yl)-1H-pyrazol-4-yl]furo[2,3-c]pyridin-7-amine]
6 | < 5.00 | CCC(C)Oc1cccc(-c2cc3c(-c4cnn(C5CCN(C(C)=O)CC5)c4)cnc(N)c3o2)c1 (centres unmarked) [Example 210]
7 | 5.00 to 6.00 | COC(=O)c1csc(-c2cnc(N)c3oc(-c4csc5cnccc45)cc23)c1 [Example 380, 5-(7-amino-2-thieno[2,3-c]pyridin-3-yl-furo[2,3-c]pyridin-4-yl)-thiophene-3-carboxylic acid methyl ester]
8 | < 5.00 | CC(=O)N1CCC(n2cc(-c3cnc(N)c4oc(-c5ccc(C(=O)N(C)C)cc5)cc34)cn2)CC1 [Example 125, 4-{4-[1-(1-acetylpiperidin-4-yl)-1H-pyrazol-4-yl]-7-aminofuro[2,3-c]pyridin-2-yl}-N,N-dimethylbenzamide]
9 | 5.00 to 6.00 | CC(=O)N1CCC(n2cc(-c3cnc(N)c4oc(-c5ccc(Cl)c(C(=O)O)c5)cc34)cn2)CC1 [Example 110, 5-{4-[1-(1-acetylpiperidin-4-yl)-1H-pyrazol-4-yl]-7-aminofuro[2,3-c]pyridin-2-yl}-2-chlorobenzoic acid hydrochloride]
10 | 5.00 to 6.00 | CC(=O)N1CCC(n2cc(-c3cnc(N)c4oc(-c5ccc([N+](=O)[O-])nc5)cc34)cn2)CC1 [Example 119, 1-(4-{4-[7-amino-2-(6-nitropyridin-3-yl)furo[2,3-c]pyridin-4-yl]-1H-pyrazol-1-yl}piperidin-1-yl)ethanone]
11 | 5.00 to 6.00 | Nc1ncc(-c2cnn(C3CCNCC3)c2)c2cc(-c3csc4ccccc34)oc12 [Example 19, 2-(1-benzothiophen-3-yl)-4-[1-(piperidin-4-yl)-1H-pyrazol-4-yl]furo[2,3-c]pyridine-7-amine]
12 | 5.00 to 6.00 | CC(=O)N1CCC(n2cc(-c3cnc(N)c4oc(-c5cccc(OC(F)(F)F)c5)cc34)cn2)CC1 [Example 163, 1-[4-(4-{7-amino-2-[3-(trifluoromethoxy)phenyl]furo[2,3-c]pyridin-4-yl}-1H-pyrazol-1-yl)piperidin-1-yl]ethanone]
13 | < 5.00 | CC(=O)N1CCC(n2cc(-c3cnc(N)c4oc(-c5cccc(OCc6ccccc6)c5)cc34)cn2)CC1 [Example 164, 1-[4-(4-{7-amino-2-[3-(benzyloxy)phenyl]furo[2,3-c]pyridin-4-yl}-1H-pyrazol-1-yl)piperidin-1-yl]ethanone]
14 | < 5.00 | CC(=O)N1CCC(n2cc(-c3cnc(N)c4oc(C5=CCC6(CC5)OCCO6)cc34)cn2)CC1 [Example 408, 1-(4-{4-[7-amino-2-(1,4-dioxaspiro[4.5]dec-7-en-8-yl)furo[2,3-c]pyridin-4-yl]-1H-pyrazol-1-yl}piperidin-1-yl)ethanone]
15 | < 5.00 | CC(=O)N1CCC(n2cc(-c3cnc(N)c4oc(-c5ccc(COc6cccc7ccccc67)cc5)cc34)cn2)CC1 [Example 156, 1-{4-[4-(7-amino-2-{4-[(naphthalen-1-yloxy)methyl]phenyl}furo[2,3-c]pyridin-4-yl)-1H-pyrazol-1-yl]piperidin-1-yl}ethanone]
16 | 5.00 to 6.00 | Cc1c(-c2cccc3ccsc23)oc2c(N)ncc(-c3cnn(C4CCNCC4)c3)c12 [Example 10, 2-(1-benzothiophen-7-yl)-3-methyl-4-[1-(piperidin-4-yl)-1H-pyrazol-4-yl]furo[2,3-c]pyridin-7-amine hydrochloride]
17 | 6.00 to 7.00 | O[C@H]1CC[C@H](n2cc(-c3cncc4oc(-c5cccc6ncsc56)cc34)cn2)CC1
18 | 5.00 to 6.00 | CC(=O)N1CCC(n2cc(-c3cnc(N)c4oc(-c5cnn(Cc6ccncc6)c5)cc34)cn2)CC1 [Example 151, 1-[4-(4-{7-amino-2-[1-(pyridin-4-ylmethyl)-1H-pyrazol-4-yl]furo[2,3-c]pyridin-4-yl}-1H-pyrazol-1-yl)piperidin-1-yl]ethanone]
19 | 6.00 to 7.00 | Nc1ncc(-c2cnn([C@H]3CC[C@H](O)CC3)c2)c2cc(-c3ccc4cn[nH]c4c3)oc12 [Example 406, trans-4-{4-[7-amino-2-(1H-indazol-6-yl)furo[2,3-c]pyridin-4-yl]-1H-pyrazol-1-yl}cyclohexanol]
20 | 5.00 to 6.00 | CC(=O)N1CCC(n2cc(-c3cnc(N)c4oc(-c5cnc6cnccn56)cc34)cn2)CC1 [Example 274, 1-(4-{4-[7-amino-2-(imidazol[1,2-a]pyrazin-3-yl)furo[2,3-c]pyridin-4-yl]-1H-pyrazol-1-yl}piperidin-1-yl)ethanone trifluoroacetic acid salt]
21 | 5.00 to 6.00 | Nc1ncc(-c2cnn(C3CCNCC3)c2)c2cc(-c3cc(C(F)(F)F)cc(C(F)(F)F)c3)oc12 [Example 1, 2-{(3,5-Bis-trifluoromethyl)phenyl}-4-(1-piperidin-4-yl-1H-pyrazol-4-yl)-furo[2,3-c]pyridin-7-ylamine]
22 | 5.00 to 6.00 | CC(=O)N1CCC(n2cc(-c3cnc(N)c4oc(-c5cccc(N(C)C)c5)cc34)cn2)CC1 [Example 116]
23 | 5.00 to 6.00 | COc1c(F)cccc1-c1cc2c(-c3cnn(C4CCNCC4)c3)cnc(N)c2o1 [Example 5, 2-(3-fluoro-2-methoxyphenyl)-4-[1-(piperidin-4-yl)-1H-pyrazol-4-yl]furo[2,3-c]pyridin-7-amine dihydrochloride]
24 | 5.00 to 6.00 | Nc1ncc(-c2cnn(C3CCNCC3)c2)c2cc(-c3ccoc3)oc12 [Example 21, 2-(furan-3-yl)-4-[1-(piperidin-4-yl)-1H-pyrazol-4-yl]furo[2,3-c]pyridine-7-amine]
25 | 5.00 to 6.00 | CN1CCC(n2cc(-c3cnc(N)c4oc(-c5cccc6ccsc56)cc34)cn2)CC1 [Example 57, 2-(1-benzothiophen-7-yl)-4-[1-(1-methylpiperidin-4-yl)-1H-pyrazol-4-yl]furo[2,3-c]pyridin-7-amine]
26 | 6.00 to 7.00 | Nc1ncc(-c2cnn(C3CCNCC3)c2)c2c(Cl)c(-c3ccccc3)oc12 [Example 12, 3-chloro-2-phenyl-4-[1-(piperidin-4-yl)-1H-pyrazol-4-yl]furo[2,3-c]pyridin-7-amine hydrochloride]
